Measurements published in ChEMBL document CHEMBL4616657, “Aromatic Esters of the Crinane Amaryllidaceae Alkaloid Ambelline as Selective Inhibitors of Butyrylcholinesterase” (J Nat Prod, 2020).

Tests used:
[1] = target: Cholinesterase (Equus caballus, UniProt P81908); experiment: Inhibition of horse serum BuChE using butyrylthiocholine chloride as substrate by spectrophotometric based Ellman's method
[2] = target: T1, Acetylcholinesterase (Homo sapiens, UniProt P22303); experiment: Inhibition of human AChE using acetylthiocholine iodide as substrate at 100 uM measured for 1 min by spectrophotometric based Ellman's method relative to control
T1 sequence (P22303 whole entry): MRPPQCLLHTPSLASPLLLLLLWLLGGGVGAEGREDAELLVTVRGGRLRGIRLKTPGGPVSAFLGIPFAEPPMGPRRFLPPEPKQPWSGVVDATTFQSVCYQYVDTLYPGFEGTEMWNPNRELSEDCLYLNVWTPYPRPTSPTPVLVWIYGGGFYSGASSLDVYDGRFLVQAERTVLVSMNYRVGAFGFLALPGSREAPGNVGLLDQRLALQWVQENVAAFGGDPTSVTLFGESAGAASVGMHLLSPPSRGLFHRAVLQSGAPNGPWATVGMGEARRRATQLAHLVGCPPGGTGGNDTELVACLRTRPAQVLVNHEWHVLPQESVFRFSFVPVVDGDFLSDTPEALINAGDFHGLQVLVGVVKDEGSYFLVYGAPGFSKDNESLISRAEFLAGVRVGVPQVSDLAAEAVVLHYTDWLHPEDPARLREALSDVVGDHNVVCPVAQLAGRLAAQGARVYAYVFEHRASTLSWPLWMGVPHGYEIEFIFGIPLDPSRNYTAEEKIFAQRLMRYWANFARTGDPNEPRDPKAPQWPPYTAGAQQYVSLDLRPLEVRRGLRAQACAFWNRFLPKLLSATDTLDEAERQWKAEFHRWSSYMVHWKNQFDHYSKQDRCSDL

[3] = target: T2, Cholinesterase (Homo sapiens, UniProt P06276); experiment: Inhibition of human BuChE using butyrylthiocholine iodide as substrate measured for 1 min by spectrophotometric based Ellman's method
T2 sequence (P06276 whole entry): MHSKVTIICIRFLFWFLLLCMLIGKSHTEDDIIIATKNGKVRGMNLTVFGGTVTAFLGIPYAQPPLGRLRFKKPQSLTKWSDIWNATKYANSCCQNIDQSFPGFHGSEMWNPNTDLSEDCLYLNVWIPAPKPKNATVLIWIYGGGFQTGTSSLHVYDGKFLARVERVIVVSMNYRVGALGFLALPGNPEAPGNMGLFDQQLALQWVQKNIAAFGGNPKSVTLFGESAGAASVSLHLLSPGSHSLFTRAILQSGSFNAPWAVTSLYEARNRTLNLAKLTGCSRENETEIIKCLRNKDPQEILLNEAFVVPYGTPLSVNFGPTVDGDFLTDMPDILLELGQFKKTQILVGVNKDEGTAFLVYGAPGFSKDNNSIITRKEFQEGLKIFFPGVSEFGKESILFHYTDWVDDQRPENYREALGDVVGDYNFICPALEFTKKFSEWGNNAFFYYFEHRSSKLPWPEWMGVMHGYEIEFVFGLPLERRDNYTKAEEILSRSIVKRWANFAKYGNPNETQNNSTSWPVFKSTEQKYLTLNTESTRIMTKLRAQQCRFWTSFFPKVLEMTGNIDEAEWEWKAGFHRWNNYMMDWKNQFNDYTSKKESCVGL

[4] = species on record: Homo sapiens; experiment: Selectivity index, ratio of IC50 for inhibition of human AChE using acetylthiocholine iodide as substrate to inhibition of human BuChE using butyrylthiocholine iodide as substrate
[5] = target: T2, Cholinesterase; experiment: Inhibition of human BuChE using butyrylthiocholine iodide as substrate at 100 uM measured for 1 min by spectrophotometric based Ellman's method relative to control
[6] = Effective permeability of the compound at pH 7.4 at 100 uM measured after 3 to 6 hrs by PAMPA assay; format: ADME; conditions: read-out: Peff
[7] = target: T1, Acetylcholinesterase; experiment: Inhibition of human AChE using acetylthiocholine iodide as substrate measured for 1 min by spectrophotometric based Ellman's method

Chain of Cholinesterase (Equus caballus, UniProt P81908) (P81908 whole entry): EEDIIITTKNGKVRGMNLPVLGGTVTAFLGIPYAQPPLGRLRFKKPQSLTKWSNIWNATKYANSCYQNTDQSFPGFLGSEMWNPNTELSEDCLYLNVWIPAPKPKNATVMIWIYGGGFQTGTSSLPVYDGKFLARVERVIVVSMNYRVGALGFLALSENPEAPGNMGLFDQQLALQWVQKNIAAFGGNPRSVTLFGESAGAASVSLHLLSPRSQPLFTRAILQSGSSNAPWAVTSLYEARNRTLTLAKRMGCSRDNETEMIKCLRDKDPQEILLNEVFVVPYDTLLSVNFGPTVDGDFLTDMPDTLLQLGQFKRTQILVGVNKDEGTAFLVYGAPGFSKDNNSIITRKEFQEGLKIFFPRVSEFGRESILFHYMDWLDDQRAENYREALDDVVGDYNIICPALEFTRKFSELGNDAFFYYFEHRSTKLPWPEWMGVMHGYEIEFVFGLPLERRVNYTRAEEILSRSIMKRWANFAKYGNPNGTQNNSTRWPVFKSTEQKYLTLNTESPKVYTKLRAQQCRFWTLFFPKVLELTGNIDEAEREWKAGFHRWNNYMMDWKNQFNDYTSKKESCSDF

Structure (SMILES)	IC50 [1]	inhibition [2]	IC50 [3]	Ratio IC50 [4]	inhibition [5]	Papp at 100 µM [6]	IC50 [7]
C[C@@H]([C@H]1CC[C@@]2(C)[C@@H]3CC[C@@H]4C(=CC3=CC[C@]12C)C=C[C@H](NC(=O)c1ccccc1)C4(C)C)N(C)C	1.7 µM	–	–	–	–	–	–
COc1c2c(cc3c1OCO3)[C@]13C=C[C@H](OC)C[C@@H]1[N@](C2)C[C@H]3OC(=O)c1ccccc1C	–	51%	0.28 µM	195	99%	19 ×10⁻⁶ cm/s	55 µM
COc1c2c(cc3c1OCO3)[C@]13C=C[C@H](OC)C[C@@H]1[N@](C2)C[C@H]3OC(=O)c1ccc2ccccc2c1	–	29%	–	5.2	77%	–	–
COc1ccccc1C(=O)O[C@@H]1C[N@@]2Cc3c(cc4c(c3OC)OCO4)[C@@]13C=C[C@H](OC)C[C@H]23	–	31%	–	> 235	99%	–	–
COc1ccc(C(=O)O[C@@H]2CN3Cc4c(cc5c(c4OC)OCO5)[C@@]24C=C[C@H](OC)C[C@H]34)cc1OC	–	–	> 100 µM	–	–	–	> 100 µM
COc1ccc(C(=O)O[C@@H]2C[N@@]3Cc4c(cc5c(c4OC)OCO5)[C@@]24C=C[C@H](OC)C[C@H]34)cc1OC	–	15%	–	–	33%	–	–
COc1c2c(cc3c1OCO3)[C@]13C=C[C@H](OC)C[C@@H]1N(C2)C[C@H]3OC(=O)c1cccc([N+](=O)[O-])c1	–	–	81 µM	–	–	–	48 µM
COc1ccc(C(=O)O[C@@H]2C[N@@]3Cc4c(cc5c(c4OC)OCO5)[C@@]24C=C[C@H](OC)C[C@H]34)cc1	–	26%	> 100 µM	–	32%	–	> 100 µM
COc1c2c(cc3c1OCO3)[C@]13C=C[C@H](OC)C[C@@H]1[N@](C2)C[C@H]3OC(=O)c1ccco1	–	12%	–	–	49%	–	–
COc1c2c(cc3c1OCO3)[C@]13C=C[C@H](OC)C[C@@H]1N(C2)C[C@H]3OC(=O)c1ccc2ccccc2c1	–	–	14 µM	–	–	–	> 100 µM
COc1c2c(cc3c1OCO3)[C@]13C=C[C@H](OC)C[C@@H]1N(C2)C[C@H]3OC(=O)c1cccc2ccccc12	–	–	0.1 µM	–	–	9 ×10⁻⁶ cm/s	> 100 µM
COc1c2c(cc3c1OCO3)[C@]13C=C[C@H](OC)C[C@@H]1N(C2)C[C@H]3OC(=O)c1ccc(C)cc1	–	–	28 µM	–	–	–	> 100 µM
COc1cccc(C(=O)O[C@@H]2C[N@@]3Cc4c(cc5c(c4OC)OCO5)[C@@]24C=C[C@H](OC)C[C@H]34)c1	–	25%	–	> 16	91%	–	–
COc1c2c(cc3c1OCO3)[C@]13C=C[C@H](OC)C[C@@H]1[N@](C2)C[C@H]3OC(=O)c1ccoc1	–	12%	–	1.9	61%	–	–
COc1c2c(cc3c1OCO3)[C@]13C=C[C@H](OC)C[C@@H]1N(C2)C[C@H]3OC(C)=O	–	–	> 100 µM	–	–	–	> 100 µM
COc1c2c(cc3c1OCO3)[C@]13C=C[C@H](OC)C[C@@H]1[N@](C2)C[C@H]3O	–	4%	> 100 µM	–	8%	–	> 100 µM
COc1c2c(cc3c1OCO3)[C@]13C=C[C@H](OC)C[C@@H]1N(C2)C[C@H]3OC(=O)c1ccco1	–	–	> 100 µM	–	–	–	> 100 µM
COc1ccccc1C(=O)O[C@@H]1CN2Cc3c(cc4c(c3OC)OCO4)[C@@]13C=C[C@H](OC)C[C@H]23	–	–	0.43 µM	–	–	12 ×10⁻⁶ cm/s	> 100 µM
COc1c2c(cc3c1OCO3)[C@]13C=C[C@H](OC)C[C@@H]1N(C2)C[C@H]3OC(=O)c1ccccc1[N+](=O)[O-]	–	–	2.3 µM	–	–	12 ×10⁻⁶ cm/s	54 µM
